Earlier results as cited in patent US20220409614A1, “TREATING BEHAVIORAL AND PSYCHOLOGICAL SYMPTOMS IN DEMENTIA PATIENTS” (SUVEN LIFE SCIENCES LIMITED, priority 2019, published 2022).
Read-outs that look alike come from different tables or passages of the source.

Columns and labels:
[1] = short-term treatment; cited from earlier work
[2] = cited from earlier work
patients with AD = settings: citalopram treatment group; cited from earlier work

Structure (SMILES): Cc1nc2n(c(=O)c1CCN1CCC(c3noc4cc(F)ccc34)CC1)CCCC2 [risperidone]
- symptomatic benefit in BPSD [1]: modest symptomatic benefit

Structure (SMILES): O=C1CCc2ccc(OCCCCN3CCN(c4cccc(Cl)c4Cl)CC3)cc2N1 [aripiprazole]
- symptomatic benefit in BPSD [1]: modest symptomatic benefit

Structure (SMILES): CC(C)COc1ccc(CNC(=O)N(Cc2ccc(F)cc2)C2CCN(C)CC2)cc1 [Pimavanserin]
- effect on NPI-NH psychosis scale ([2]; week 6): statistically significant effect
- effect on NPI-NH psychosis scale ([2]; week 12): no effect was evident

Structure (SMILES): CN(C)CCCC1(c2ccc(F)cc2)OCc2cc(C#N)ccc21 (stereo not drawn) [Citalopram]
- QT interval (patients with AD): QT interval prolongation
- cognition (patients with AD): Worsening of cognition
